# Experimental data reported in patent publication US11834448B2, “2-amino-quinoline derivatives” (BIRDIE BIOPHARMACEUTICALS, INC., priority 2017, dated 2023).
# Columns and labels:
# Human PBMCs [1] = assay: Cytokine production in PBMCs: human IL-6 by ELISA; format: cell-based; parameters: key: ″+″ means that there was production of IFNa or IL-6 on PBMC; ″−″means that noproduction of IFNa or IL-6 on PBMC was detected; settings: compounds tested at concentration of 10 uM; human PBMCs cultured 20-22 hours; supernatant ELISA
# Experimental: (§1) The compound functionality was tested for some of the compounds prepared by stimulation and determination of cytokine production in PBMCs.
# (§2) Human PBMCs were prepared from buffy coat obtained from healthy volunteer donor by Ficoll centrifugation and were adjusted to the final cell concentration to 1×10^6 cells/mL.
# (§3) For evaluation of compound activities, 1×10^5 PBMCs were plated in a 96-well plate in 100 μl of RPMI 1640 complete medium (cat no. 31800-022, GIBCO by Life Technologies, Grand Island, NY, USA) supplemented with 10% fetal bovine serum, the tested compound was first dissolved in DMSO and further diluted in PBS and RPMI 1640 medium to the final concentration of […] (corresponding to 6.28 μg/mL), then 3-fold serially dilution was made in a 96-well round-bottom plate. 100 μl diluted compound was added to the same volume of 1×10^5 PBMCs plate and cultured for 20-22 hours at 37° C. in a humidified atmosphere of 5% CO2. The supernatant was collected for human IFN-α, IL12(p70) and IL-6 analysis by ELISA assay according to the manufacturer's instructions (Mabtech AB, Sweden). Resiquimod was used as a positive control.
# Human PBMCs [2] = assay: Cytokine production in PBMCs: human IFN-α by ELISA; format: cell-based; parameters: key: ″+″ means that there was production of IFNa or IL-6 on PBMC; ″−″means that noproduction of IFNa or IL-6 on PBMC was detected; settings: compounds tested at concentration of 10 uM; human PBMCs cultured 20-22 hours; supernatant ELISA
# Experimental: as §1, §2, §3
Compound,Production of IL−6 on PBMC (Human PBMCs [1]),Production of IFNa on PBMC (Human PBMCs [2])
"CCOCc1nc2c(N)nc3cccc(OCC(C)C)c3c2[nH]1 [Compound 15, 2-(ethoxymethyl)-9-isobutoxy-1H-imidazo[4,5-c]quinolin-4-amine]",+,+
"CCOCc1nc2c(N)nc3cccc(OC4CCNCC4)c3c2n1C [Compound 29, 2-(ethoxymethyl)-1-methyl-9-(piperidin-4-yloxy)-1H-imidazo[4,5-c]quinolin-4-amine]",+,+
"CCOCc1nc2c(N)nc3cccc(OCCCCNS(C)(=O)=O)c3c2n1C [Compound 22, N-(4-((4-amino-2-(ethoxymethyl)-1-methyl-1H-imidazo[4,5-c]quinolin-9-yl)oxy)butyl)methanesulfonamide]",+,+
"CCOCc1nc2c(N)nc3cccc(OCCCNS(C)(=O)=O)c3c2n1C [Compound 19, N-(3-((4-amino-2-(ethoxymethyl)-1-methyl-1H-imidazo[4,5-c]quinolin-9-yl)oxy)propyl)methanesulfonamide]",+,+
"CC(C)CCn1cc2c(n1)c(N)nc1cccc(O)c12 [Compound 31, 4-amino-2-isopentyl-2H-pyrazolo[3,4-c]quinolin-9-ol]",−,−
"CCCCCCCCCCCCCCCC(=O)NCCCCOc1cccc2nc(N)c3nc(COCC)n(C)c3c12 [Compound 35, N-(4-((4-amino-2-(ethoxymethyl)-1-methyl-1H-imidazo[4,5-c]quinolin-9-yl)oxy)butyl)palmitamide]",+,+
"CCCCn1cc2c(n1)c(N)nc1cccc(OCCC(C)C)c12 [Compound 33, 2-butyl-9-(isopentyloxy)-2H-pyrazolo[3,4-c]quinolin-4-amine]",+,−
"COc1cccc2nc(N)c3nc(CCO)n(CC(C)(C)O)c3c12 [Compound 4, 1-(4-amino-2-(2-hydroxyethyl)-9-methoxy-1H-imidazo[4,5-c]quinolin-1-yl)-2-methylpropan-2-ol]",−,−
"CCOCc1nc2c(N)nc3cccc(OCCOC(C)C)c3c2[nH]1 [Compound 11, 2-(ethoxymethyl)-9-(2-isopropoxyethoxy)-1H-imidazo[4,5-c]quinolin-4-amine]",+,+
"CCCCCCCCCCCCCCCC(=O)NCCCOc1cccc2nc(N)c3nc(COCC)n(C)c3c12 [Compound 34, N-(3-((4-amino-2-(ethoxymethyl)-1-methyl-1H-imidazo[4,5-c]quinolin-9-yl)oxy)propyl)palmitamide]",+,+
"CCOCc1nc2c(N)nc3cccc(OCCOC(C)C)c3c2n1C [Compound 16, 2-(ethoxymethyl)-9-(2-isopropoxyethoxy)-1-methyl-1H-imidazo[4,5-c]quinolin-4-amine]",+,+
"COCCc1nc2c(N)nc3cccc(OC)c3c2n1CC(C)(C)O [Compound 3, 1-(4-amino-9-methoxy-2-(2-methoxyethyl)-1H-imidazo[4,5-c]quinolin-1-yl)-2-methylpropan-2-ol]",−,−
"CCOCc1nc2c(N)nc3cccc4c3c2n1C[C@](C)(O)CO4 [Compound 42, (S)-2-amino-12-(ethoxymethyl)-6-methyl-6,7-dihydro-5H-3,4-(azenometheno)[1,5]oxazocino[4,3,2-de]quinolin-6-ol]",+,+
"CCOCc1nc2c(N)nc3cccc(OCC(C)(C)O)c3c2n1C [Compound 38, 1-((4-amino-2-(ethoxymethyl)-1-methyl-1H-imidazo[4,5-c]quinolin-9-yl)oxy)-2-methylpropan-2-ol]",+,+
"CCOCc1nc2c(N)nc3cccc(OCCC(C)(C)O)c3c2n1CC(C)C [Compound 12, 4-((4-amino-2-(ethoxymethyl)-1-isobutyl-1H-imidazo[4,5-c]quinolin-9-yl)oxy)-2-methylbutan-2-ol]",+,+
"CCCCCCCCCCCCCCCCCC(=O)NCCCOc1cccc2nc(N)c3nc(COCC)n(C)c3c12 [Compound 23, N-(3-((4-amino-2-(ethoxymethyl)-1-methyl-1H-imidazo[4,5-c]quinolin-9-yl)oxy)propyl)stearamide]",+,+
"CCOCc1nc2c(N)nc3cccc(OCCC(C)(C)O)c3c2[nH]1 [Compound 5, 4-((4-amino-2-(ethoxymethyl)-1H-imidazo[4,5-c]quinolin-9-yl)oxy)-2-methylbutan-2-ol]",+,+
"CCOCc1nc2c(N)nc3cccc(OCC(C)O)c3c2[nH]1 (stereo not drawn) [Compound 8, 1-((4-amino-2-(ethoxymethyl)-1H-imidazo[4,5-c]quinolin-9-yl)oxy)propan-2-ol]",+,+
